Our source for the IC50 values is PubChem BioAssay AID651642 (Sanford-Burnham Center for Chemical Genomics, 2012).

Structures are written as SMILES. A value given as a limit tells only on which side of the number the result lay.

A word on the IC50: it is the concentration that inhibits the measured activity by half. High values mean a need for much substance, low ones inhibition by little substance.

One assay deals with H9c2. As to the kind of experiment: protection of cardiomyocytes from stress damage, SAR follow-up, cell-based, panel, H9c2 and HL-1, H2O2, 2-deoxyglucose, ATP luminescence (AID 651642).
In another assay the test system is HL-1. Described as above.
Setting [1] is: H9c2/HL-1 cardiomyocyte 2-deoxyglucose damage, mean of runs, with 2-deoxyglucose, mean IC50 across panel.
Where [2] appears, read: H9c2/HL-1 cardiomyocyte 2-deoxyglucose damage, run 1, with 2-deoxyglucose.
Where [3] appears, read: H9c2/HL-1 cardiomyocyte 2-deoxyglucose damage, run 2, with 2-deoxyglucose.
Setting [4] is: H9c2/HL-1 cardiomyocyte 2-deoxyglucose damage, run 3, with 2-deoxyglucose.
The mark [5] stands for this setting: H9c2/HL-1 cardiomyocyte 2-deoxyglucose damage, run 4, with 2-deoxyglucose.
The mark [6] stands for this setting: H9c2/HL-1 cardiomyocyte H2O2 oxidative damage, mean of runs, with H2O2, mean IC50 across panel.
[7] abbreviates: H9c2/HL-1 cardiomyocyte H2O2 oxidative damage, run 1, with H2O2.
The mark [8] stands for this setting: H9c2/HL-1 cardiomyocyte H2O2 oxidative damage, run 2, with H2O2.
Where [9] appears, read: H9c2/HL-1 cardiomyocyte H2O2 oxidative damage, run 3, with H2O2.
[10] abbreviates: H9c2/HL-1 cardiomyocyte H2O2 oxidative damage, run 4, with H2O2.

Turning to `COc1cc(-c2cc(C(=O)NCC(=O)Nc3cccc(C(C)=O)c3)c3cc(Br)ccc3n2)cc(OC)c1OC`, the IC50 with H9c2 (setting [1]) is 6.44 µM; in the assay on H9c2 (setting [2]), 8.22 µM; in the assay with H9c2 (setting [3]) it was 8.41 µM; with H9c2 (setting [4]), 4.43 µM; with H9c2 (setting [5]), 4.71 µM; in the assay on H9c2 (setting [6]), 1.26 µM. For the same compound, the IC50 in the assay with H9c2 (setting [7]) stood at 1.48 µM; with H9c2 (setting [8]), 1.49 µM; with H9c2 (setting [9]), 1.02 µM; with H9c2 (setting [10]), 1.06 µM; in the assay on HL-1 (setting [1]) it was 3.83 µM; in the assay with HL-1 (setting [2]) it was 2.44 µM. Moreover, the IC50 worked out at 4.64 µM with HL-1 (setting [3]); 3.4 µM with HL-1 (setting [4]); 4.85 µM in the assay on HL-1 (setting [5]); 3.34 µM with HL-1 (setting [6]); 3.56 µM in the assay on HL-1 (setting [7]); 3.69 µM in the assay on HL-1 (setting [8]). Besides, the IC50 with HL-1 (setting [9]) came out at 2.7 µM; in the assay with HL-1 (setting [10]), 3.41 µM.

With `COc1cc(-c2cc(C(=O)Nc3cccc(C(C)=O)c3)c3cccc(Cl)c3n2)cc(OC)c1OC`, the IC50 in the assay on H9c2 (setting [1]), with H9c2 (setting [2]), in the assay on H9c2 (setting [3]), in the assay on H9c2 (setting [4]), with H9c2 (setting [5]) and with H9c2 (setting [6]) was greater than 79 µM throughout. For the same compound, the IC50 in the assay with H9c2 (setting [7]), in the assay on H9c2 (setting [8]), in the assay on H9c2 (setting [9]), in the assay with H9c2 (setting [10]), with HL-1 (setting [1]) and with HL-1 (setting [2]) was greater than 79 µM throughout. In addition, the concentration for half-maximal inhibition (IC50) with HL-1 (setting [3]) is greater than 79 µM; in the assay on HL-1 (setting [4]), greater than 79 µM; with HL-1 (setting [5]), greater than 79 µM; in the assay with HL-1 (setting [7]), greater than 79 µM; with HL-1 (setting [8]), greater than 79 µM; in the assay with HL-1 (setting [9]) it was 2 µM. For the same compound, the concentration for half-maximal inhibition (IC50) with HL-1 (setting [10]) was determined as 2.5 µM.

In the case of `COc1ccc2c(c1OC)C(=O)N1c3ccccc3C(=O)N(Cc3cccc(Cl)c3Cl)C21` (configuration not stated), the IC50 amounted to 8.9 µM in the assay on H9c2 (setting [1]); 9.42 µM in the assay on H9c2 (setting [2]); 12.2 µM with H9c2 (setting [3]); 6.65 µM with H9c2 (setting [4]); 7.38 µM with H9c2 (setting [5]); 0.447 µM in the assay with H9c2 (setting [7]). Moreover, the IC50 in the assay with H9c2 (setting [8]) was 0.739 µM; with H9c2 (setting [9]), greater than 79 µM; in the assay on H9c2 (setting [10]), greater than 79 µM; in the assay with HL-1 (setting [1]) it was 1.48 µM; in the assay with HL-1 (setting [2]) it was 0.792 µM; in the assay on HL-1 (setting [3]), 0.807 µM. The 50% inhibitory concentration (IC50) in the assay with HL-1 (setting [4]) is 1.98 µM; with HL-1 (setting [5]), 2.35 µM; in the assay with HL-1 (setting [6]), greater than 79 µM; in the assay with HL-1 (setting [7]), greater than 79 µM; in the assay with HL-1 (setting [8]) it was greater than 79 µM; in the assay with HL-1 (setting [9]), greater than 79 µM. Further, the concentration for half-maximal inhibition (IC50) in the assay with HL-1 (setting [10]) was greater than 79 µM.

With `CCOC(=O)c1cccc(NC(=O)c2cc(-c3cc(OC)c(OC)c(OC)c3)nc3ccc(F)cc23)c1`, the IC50 with H9c2 (setting [1]) was greater than 79 µM; with H9c2 (setting [2]) it was greater than 79 µM; in the assay with H9c2 (setting [3]), greater than 79 µM; in the assay with H9c2 (setting [4]), greater than 79 µM; with H9c2 (setting [5]), greater than 79 µM; with H9c2 (setting [7]), 9 µM. Moreover, the IC50 was 10.7 µM in the assay with H9c2 (setting [8]); greater than 79 µM in the assay with H9c2 (setting [9]); 3.82 µM in the assay with H9c2 (setting [10]); 3.32 µM with HL-1 (setting [2]); 4.09 µM with HL-1 (setting [3]); greater than 79 µM in the assay with HL-1 (setting [4]). Besides, the IC50 in the assay with HL-1 (setting [5]) is greater than 79 µM; with HL-1 (setting [6]) it was 4.11 µM; with HL-1 (setting [7]) it was 2.77 µM; in the assay with HL-1 (setting [8]), 7.9 µM; with HL-1 (setting [9]) it was 2.4 µM; in the assay with HL-1 (setting [10]), 3.37 µM.

As for `COc1cc(-c2cc(C(=O)NCC(=O)Nc3cccc(C(C)=O)c3)c3cc(C)ccc3n2)cc(OC)c1OC`, the IC50 was greater than 79 µM in the assay with H9c2 (setting [2]); greater than 79 µM with H9c2 (setting [3]); 19.9 µM in the assay with H9c2 (setting [4]); 24.4 µM with H9c2 (setting [5]); 10.1 µM in the assay with H9c2 (setting [6]); 12.5 µM in the assay on H9c2 (setting [7]). Besides, the IC50 amounted to 13.5 µM with H9c2 (setting [8]); 5.91 µM in the assay on H9c2 (setting [9]); 8.51 µM in the assay on H9c2 (setting [10]); 23 µM with HL-1 (setting [1]); 13.6 µM in the assay on HL-1 (setting [2]); 14.8 µM with HL-1 (setting [3]). Also, the 50% inhibitory concentration (IC50) with HL-1 (setting [4]) worked out at 29.8 µM; in the assay with HL-1 (setting [5]), 33.9 µM; with HL-1 (setting [6]), 36.9 µM; in the assay on HL-1 (setting [7]), 34.9 µM; with HL-1 (setting [8]), 44.3 µM; in the assay with HL-1 (setting [9]) it was 25.5 µM. Moreover, the IC50 in the assay with HL-1 (setting [10]) came to 43.1 µM.

Take `CCOC(=O)c1cccc(NC(=O)CNC(=O)c2cc(-c3cc(OC)c(OC)c(OC)c3)nc3c(Cl)cccc23)c1`: the IC50 was greater than 79 µM in the assay on H9c2 (setting [1]); greater than 79 µM in the assay on H9c2 (setting [2]); greater than 79 µM with H9c2 (setting [3]); greater than 79 µM in the assay with H9c2 (setting [4]); greater than 79 µM with H9c2 (setting [5]); 5.52 µM in the assay on H9c2 (setting [7]). Besides, the IC50 was 8.8 µM in the assay with H9c2 (setting [8]); greater than 79 µM in the assay with H9c2 (setting [9]); 3.36 µM in the assay with H9c2 (setting [10]); 3.56 µM with HL-1 (setting [2]); 5.79 µM with HL-1 (setting [3]); greater than 79 µM in the assay on HL-1 (setting [4]). Also, the IC50 with HL-1 (setting [5]) is greater than 79 µM; in the assay on HL-1 (setting [7]), greater than 79 µM; with HL-1 (setting [8]) it was greater than 79 µM; with HL-1 (setting [9]), 4.99 µM; in the assay with HL-1 (setting [10]), 15.4 µM.
